The values below come from patent US6596878B2, “Methods and compositions for inhibiting cell proliferative disorders” (Yissum Research & Development Company of the Hebrew …, priority 1994, dated 2003).

Values joined by “and” are separate entries in the source; they are usually repeats but may differ in a detail not shown here. Identical values can stand only once. Like-named read-outs stand apart in the source and are kept apart here.

Common to all, as to format: cell-based
The target in assay [1] is T1, HER2 (Homo sapiens, UniProt P04626).
T1 construct: the human mammary carcinoma line BT474 (ATCC HTB2) expressing HER2; endogenous in cells; host or cells: BT474 human mammary carcinoma cells
The experiment in a line: HER2-BT474 whole cell kinase ELISA. As for the experimental part: HER2-BT474 assays measuring whole cell HER2 activity was carried out as described below:
All the following steps are at room temperature and aseptically, unless stated otherwise. All ELISA plate washing is by rinsing with distilled water three times and once with TBST.
Incubate the cells in 5% CO2 at 37° C. overnight.
2. ELISA Plate Coating and Blocking

The test system of assay [2] is NIH3T3 cells overexpressing the HER2 kinase (3T3-HER2). Kind of assay: 3T3 growth assay, HER2C7 cells (3T3-HER2). The conditions noted are these: Mus musculus, NIH3T3, 96 h, Table VI, 2% FBS, 4 days. An excerpt: (§1) This example illustrates the ability of the exemplary compounds to inhibit receptor tyrosine kinases, such as HER2 and/or EGFR. The following target cells were used for cellular kinaseassays: NIH3T3 clone C7 (Honegger et al., supra) engineered to over-express human EGF receptor; NIH3T3 cells engineered to over-express a chimeric receptor containing the EGFR extracellular domain and the HER2 intracellular kinase domain; the human mammary carcinoma line BT474 (ATCC HTB2) expressing HER2; and the human glioblastoma line U1242 that expresses PDGFR-β. Growth assays were carried out using human mammary epithelial SKBR3 (ATCC HTB30) cells, SKOV3 (ATCC HTB77) human ovarian cancer cell line, A431 cells, MCF7 human breast carcinoma cells, MCF7 cells overexpress the HER2 kinase (MCF7-HER2), NIH3T3 cells, and NIH3T3 cells overexpressing the HER2 kinase (3T3-HER2).
(§2) The 3T3 growth assay was carried out as follows:
(§3) (1) Dulbecco's Modified Eagle Medium (D-MEM), Gibco 11965-050;
(§4) (4) Fetal Bovine Serum Certified, Gibco 16000-028;
(§5) (5) Dulbecco's Phosphate-Buffered Saline (D-PBS), Gibco 14190-029;
(§6) (6) Sulforhodamine B (SRB), Sigma S-9012. 0.4% SRB in 1% acetic acid;
(§7) (7) 10 mM Tris-base, Fisher BP152-5;
(§8) (8) 10% TCA, Trichloroacetic acid, Fisher A322-500;
(§9) (9) 96-well flat bottom plate (sterile), Corning 08-757-155;
(§10) (10) 100 ml reagent reservoir 9 (sterile), Matrix Technologies Corporation, 8086;
(§11) (11) Sterile pipet tips, Fisher 21-197-8E;
(§12) NIH3T3C7 cells in 10% CS+2 mM GLN DMEM HER2C7 cells in 2% FBS+2 mM GLN DMEM
(§13) (1) HER2C7 (engineered to express HER2) and NIH3T3C7 (as the control) cells are used for this assay. NIH3T3C7 cells are seeded at 2500 cells/well, […] in 10% CS+2 mM GLN DMEM, in a 96 well plate; HER2C7 cells are seeded at 6000 cells/well, 100 μl/well in 2% FBS+2 mM GLN DMEM, in a 96 well plate. Cells are incubated at 37° C., 5% CO2 overnight to allow for cell attachment to the plate;
(§14) (2) The test compound is added to the cells at day 2. The compounds are prepared in the appropriate growth medium (10% CS+2 mM) GLN DMEM for NIH3T3C7 cells; 2% FBS+2 mM GLN DMEM for HER2C7 cells) in a 96 well plate, and serially diluted. A total of 100 μl/well medium of the diluted compounds is added into the cells. The total volume of each well is 200 μl. Quadruplicates (wells) and 11 concentration points are applied to each compound tested.
(§15) (3) After the cells are treated with the compound for 4 days, the cells are washed with PBS and fixed with 200 μl/well ice-cold 10% TCA for one hour at 0-5° C. condition.
(§16) (4) Remove TCA and rinse wells 5 times with deionized water. Dry plates upside down with paper towels. Stain cells with 0.4% SRB at 100 μl/well for 10 minutes.
(§17) (5) Pour off SRB and rinse plate 5 times with 1% acetic acid. Dry plate completely.
(§18) (6) Solubilize the dye with 10 mM Tris-base at 100 μl/well for 10 minutes on a shaker.
(§19) (7) Read the plate at dual wavelengths at 570 nm and 630 nm on Dynatech Elisa plate reader.

Assay [3] deals with NIH3T3 cells. Kind of assay: 3T3 growth assay, NIH3T3C7 control cells. The conditions noted are these: Mus musculus, NIH3T3, 96 h, Table VI, 10% CS, 4 days.
Description: as §1, §2, §3, §4, §5, §6, §7, §8, §9, §10, §11, §12, §13, §14, §15, §16, §17, §18, §19

The mark [4] stands for this setting: Table V, read-out: Estimated IC50 Cellular Kinase Assays HER2 (BT474).
Where [5] appears, read: Table VI, cellular kinase assay, read-out: HER2-BT474.

In the case of `CC(C)(C)c1cc(/C=C(\C#N)C(N)=S)cc(C(C)(C)C)c1O` [Compound M11], the IC50 was less than 3 µM in assay [1] (setting [4]), 3.1 µM in assay [1] (setting [5]), 30 µM in assay [2] and 75 µM in assay [3].
Consider `Cc1cc(/C=C(\C#N)S(=O)(=O)c2ccccn2)cc(C)c1O` [Compound M32], for which the results for the IC50 in assay [1] (setting [5]), in assay [2] and in assay [3] were 7.3 µM, 80 µM and greater than 100 µM, respectively.
For the compound `N#C/C(=C\c1ccc(O)c(O)c1)C(=S)NCc1ccccc1` [Compound M13], the IC50 in assay [1] (setting [4]) and in assay [1] (setting [5]) was 14 µM in each case. Besides, the “fold greater inhibition of HER2 compared to EGF-R” value in assay [1] (as described in Example 1) is listed as no less than 7 fold.
Turning to `CC(C)(C)c1cc(/C=C(\C#N)S(=O)(=O)c2ccccn2)cc(C(C)(C)C)c1O` [Compound M34, (E)-3-(3,5-di-t-Butyl-4-hydroxyphenyl)-2-[(pyrid-2-yl)sulfonyl]acrylonitrile], the IC50 in assay [1] (setting [5]) was found to be 0.11 µM; in assay [2] it was 5.5 µM; in assay [3], 40 µM.
As for `CC(C)(C)c1cc(/C=C(\C#N)S(=O)(=O)CC#N)cc(C(C)(C)C)c1O` [Compound M36, (E)-3-(3,5-di-t-Butyl-4-hydroxyphenyl)-2-(cyanomethylsulfonyl)acrylonitrile], in assay [1] (setting [5]), the IC50 came to 0.4 µM.
Turning to `CC(C)c1cc(/C=C(\C#N)S(=O)(=O)CC#N)cc(C(C)C)c1O` [Compound M27], the IC50 is 4.6 µM in assay [1] (setting [5]), 50 µM in assay [2] and greater than 100 µM in assay [3].
In the case of `N#C/C(=C\c1ccc(O)c(O)c1)C(=O)Nc1cccc(C(F)(F)F)c1` [Compound M15], the IC50 in assay [1] (setting [4]) and in assay [1] (setting [5]) was 16 µM in each case.
Regarding `CC(C)(C)c1cc(/C=C(\C#N)C(=O)Nc2ccc(C(F)(F)F)cc2)cc(C(C)(C)C)c1O` [Compound M35, (E)-3-(3,5-di-t-Butyl-4-hydroxyphenyl)-2-[(4-trifluoromethyl)phenylaminocarbonyl]acrylonitrile], the IC50 in assay [1] (setting [5]) came out at 0.29 µM; in assay [2], 0.25 µM; in assay [3] it was 18 µM.
Turning to `CC(C)(C)c1cc(/C=C(\C#N)S(=O)(=O)c2ccccc2)cc(C(C)(C)C)c1O` [Compound M33, (E)-3-(3,5-di-t-Butyl-4-hydroxyphenyl)-2-(phenylsulfonyl)acrylonitrile], the IC50 in assay [1] (setting [5]) came out at 0.17 µM; in assay [2] it was 9 µM; in assay [3], 35 µM.
With `N#C/C(=C\c1cc(O)c(O)c(I)c1)C(=O)NCCCc1ccccc1` [Compound M16], the IC50 in assay [1] (setting [4]) is 18 µM and 18.2 µM; in assay [1] (setting [5]) it was 26 µM.
Consider “(E,E)-2-[[-Cyano-2-(3,5-diisopropyl-4-hydroxyphenyl)ethenyl]sulfonyl]-3-(3,5-di-t-butyl-4-hydroxyphenyl)acrylonitrile [Compound M37]”, for which the IC50 in assay [1] (setting [5]) is 0.85 µM.
`CC(C)(C)c1cc(/C=C(\C#N)C(=O)NCCCc2ccccc2)cc(C(C)(C)C)c1O` [Compound M20, (E)-3-(3,5-di-t-Butyl-4-hydroxyphenyl)-2-[(3-phenyl-n-propyl)aminocarbonyl]acrylonitrile]: the values for the IC50 in assay [1] (setting [5]), in assay [2] and in assay [3] were 3 µM, 4 µM and 90 µM, respectively.
With `Cc1cc(/C=C(\C#N)S(=O)(=O)c2ccccc2)cc(C)c1O` [Compound M31], the IC50 in assay [1] (setting [5]) was 5.4 µM; in assay [2], greater than 100 µM; in assay [3], greater than 100 µM. In addition, the “activity in cellular assays” value in assay [1] (cellular assays of the Examples, versus analogous compounds having bulkier R1 and R3 groups) is “less activity”.
Turning to `CC(C)c1cc(/C=C(\C#N)S(=O)(=O)c2ccccc2)cc(C(C)C)c1O` [Compound M30], the results for the IC50 in assay [1] (setting [5]), in assay [2] and in assay [3] were 0.65 µM, 12 µM and 70 µM, respectively.
For the compound `CC(C)c1cc(/C=C(\C#N)C(=S)NCCCc2ccccc2)cc(C(C)C)c1O` [Compound M24, (E)-3-(3,5-Diisopropyl-4-hyrdroxyphenyl)-2-[(3-phenyl-n-propyl)aminothiocarbonyl]acrylonitrile], in assay [1] (setting [5]), the IC50 is 3.1 µM.
`CC(C)c1cc(/C=C(\C#N)C(=O)NCCCc2ccccc2)cc(C(C)C)c1O` [Compound M21, (E)-3-(3,5-Diisopropyl-4-hydroxyphenyl)-2-[(3-phenyl-n-propyl)aminocarbonyl]acrylonitrile]: the IC50 in assay [1] (setting [5]) is 7.4 µM; in assay [2], 70 µM; in assay [3], greater than 100 µM.
For the compound `CC(C)c1cc(/C=C(\C#N)S(=O)(=O)c2ccccn2)cc(C(C)C)c1O` [Compound M26], the IC50 in assay [1] (setting [5]) is 9.6 µM; in assay [2] it was greater than 100 µM; in assay [3], greater than 100 µM.
On to `CC(C)c1cc(C=C(C#N)C(N)=C(C#N)C#N)cc(C(C)C)c1O` [Compound M22, (E)-2-(1-Amino-2,2-dicyanoethenyl-3-(3,5-diisopropyl-4-hydroxyphenyl)acrylonitrile)], for which, in assay [1] (setting [5]), the IC50 was determined as 4.2 µM.
On to `CC(C)c1cc(/C=C(\C#N)S(=O)(=O)/C(C#N)=C/c2cc(C(C)C)c(O)c(C(C)C)c2)cc(C(C)C)c1O` [Compound M29], for which the values for the IC50 in assay [1] (setting [5]), in assay [2] and in assay [3] were 1.4 µM, 15 µM and greater than 100 µM, respectively.
